Source: ChEMBL document CHEMBL1133508, “Syntheses and antimalarial activities of 10-substituted deoxoartemisinins” (2000)

Assays:
Plasmodium falciparum [1] = test: In vitro activity against chloroquine-resistant, mefloquine-sensitive Plasmodium falciparum W2; format: functional
Plasmodium falciparum [2] = test: In vitro relative activity against chloroquine-sensitive, mefloquine-resistant Plasmodium falciparum D6; format: functional

Compound | Relative activity (Plasmodium falciparum [1]) | Relative activity (Plasmodium falciparum [2])
C[C@H]1[C@@H](C#N)O[C@@H]2OC3(C)CC[C@H]4[C@H](C)CC[C@@H]1[C@@]24OO3 (single isomer, unassigned) | 1.1 | 1.5
C[C@H]1[C@@H](CC=O)O[C@@H]2OC3(C)CC[C@H]4[C@H](C)CC[C@@H]1[C@@]24OO3 (single isomer, unassigned) | 1.8 | 3.5
C[C@H]1[C@@H](C[C@@H](O)C(C)(C)C)O[C@@H]2OC3(C)CC[C@H]4[C@H](C)CC[C@@H]1[C@@]24OO3 (single isomer, unassigned) | 1 | 1.6
C[C@H]1[C@@H](C[C@H](O)C(F)(F)F)O[C@@H]2OC3(C)CC[C@H]4[C@H](C)CC[C@@H]1[C@@]24OO3 (single isomer, unassigned) | 3.1 | 2.5
C[C@H]1[C@@H](CC(=O)C(C)(C)C)O[C@@H]2OC3(C)CC[C@H]4[C@H](C)CC[C@@H]1[C@@]24OO3 (single isomer, unassigned) | 2.1 | 1.6
C[C@H]1[C@@H](C2C=CC(=O)O2)O[C@@H]2O[C@]3(C)CC[C@H]4[C@H](C)CC[C@@H]1[C@@]24OO3 (some centres not stated) | 0.18 | 0.77
CC[C@H](O)C[C@H]1O[C@@H]2OC3(C)CC[C@H]4[C@H](C)CC[C@@H]([C@H]1C)[C@@]24OO3 (single isomer, unassigned) | 3.6 | 2.2
C[C@H]1[C@@H](C[C@H](C)O)O[C@@H]2OC3(C)CC[C@H]4[C@H](C)CC[C@@H]1[C@@]24OO3 (single isomer, unassigned) | 1 | 0.98
CCOC(=O)/C=C/C[C@H]1O[C@@H]2OC3(C)CC[C@H]4[C@H](C)CC[C@@H]([C@H]1C)[C@@]24OO3 (single isomer, unassigned) | 1.4 | 1.1
C[C@H]1[C@@H](CC(=O)c2ccccc2)O[C@@H]2OC3(C)CC[C@H]4[C@H](C)CC[C@@H]1[C@@]24OO3 (single isomer, unassigned) | 2.5 | 0.16
C[C@H]1[C@@H](C2CCCC2=O)O[C@@H]2OC3(C)CC[C@H]4[C@H](C)CC[C@@H]1[C@@]24OO3 (single isomer, unassigned) | 1.6 | 0.91
CCC(=O)C[C@H]1O[C@@H]2OC3(C)CC[C@H]4[C@H](C)CC[C@@H]([C@H]1C)[C@@]24OO3 (single isomer, unassigned) | 1.3 | 1
CC(C)[C@@H](O)C[C@H]1O[C@@H]2OC3(C)CC[C@H]4[C@H](C)CC[C@@H]([C@H]1C)[C@@]24OO3 (single isomer, unassigned) | 1.7 | 2.2
CC(C)C(=O)C[C@H]1O[C@@H]2OC3(C)CC[C@H]4[C@H](C)CC[C@@H]([C@H]1C)[C@@]24OO3 (single isomer, unassigned) | 2.1 | 1.8
C[C@H]1[C@@H](C[C@@H](O)C(F)(F)F)O[C@@H]2OC3(C)CC[C@H]4[C@H](C)CC[C@@H]1[C@@]24OO3 (single isomer, unassigned) | 2.4 | 3.1
C[C@H]1[C@@H](C[C@@H](C)O)O[C@@H]2OC3(C)CC[C@H]4[C@H](C)CC[C@@H]1[C@@]24OO3 (single isomer, unassigned) | 1.7 | 1.7
C[C@H]1[C@@H](C[C@H](O)C(C)(C)C)O[C@@H]2OC3(C)CC[C@H]4[C@H](C)CC[C@@H]1[C@@]24OO3 (single isomer, unassigned) | 5.4 | 6.8
CC(C)[C@H](O)C[C@H]1O[C@@H]2OC3(C)CC[C@H]4[C@H](C)CC[C@@H]([C@H]1C)[C@@]24OO3 (single isomer, unassigned) | 2.3 | 1.4
C[C@H]1[C@@H](C2CCCC(=O)O2)O[C@@H]2OC3(C)CC[C@H]4[C@H](C)CC[C@@H]1[C@@]24OO3 (single isomer, unassigned) | 2.2 | 1.4
CC[C@@H](O)C[C@H]1O[C@@H]2OC3(C)CC[C@H]4[C@H](C)CC[C@@H]([C@H]1C)[C@@]24OO3 (single isomer, unassigned) | 4.8 | 5.8
CC(=O)C[C@H]1O[C@@H]2OC3(C)CC[C@H]4[C@H](C)CC[C@@H]([C@H]1C)[C@@]24OO3 (single isomer, unassigned) | 1.7 | 2.6
